Measured values reported in US11246856B2, “Methods of treating resistant cancers” (University of Maryland, Baltimore, priority 2017, dated 2022).
“Also recorded” adds a separate entry of the source.

How the values were obtained:
A375 cells [1] = experiment: Immunoblot of signaling, cell cycle and apoptosis markers in A375 cells; assay type: cell-based
Experimental: (§1) Equivalent amounts of protein were electrophoresed on denaturing and reducing 10% polyacrylamide gels and transferred to nitrocellulose membrane. The membrane was blocked by 5% nonfat dry milk for one hour and incubated with 1:1000 primary antibody in 5% nonfat dry milk. Blots were rinsed in TBS-T and then incubated with secondary antibodies (1:5000) for 2 h. Secondary antibody binding was visualized using ECL Prime (Amersham) chemiluminescence detection technology. For immunostaining, cells were harvested, suspended in growth medium, and plated in LAB-TEK II Chamber Slide System. After 24 h, the cells were fixed with 4% paraformaldehyde at room temperature for 15 min, washed three with phosphate-buffered saline, in 0.1% Triton X-100 for 15 min, washed with phosphate-buffered saline, and blocked for 1 h with phosphate-buffered saline containing 7.5% fetal calf serum. Primary antibodies were added, and the slides incubated overnight at 4° C. Cells were then washed three times with phosphate-buffered saline and incubated 1 h with the appropriate Alexa Flour fluorescence probe-conjugated secondary antibody. After additional washing, the cells were stained with DAPI for 10 min prior to imaging.

A375-PLX-R cells [2] = experiment: Cell proliferation, PLX4032-resistant A375-PLX-R cells; assay type: cell-based; details: FIG. 1A
Experimental: (§2) A375, SK-MEL-5 and SK-MEL-28 cell lines were maintained in DMEM growth medium containing 10% FCS, 2 mM L-glutamine and 1 mM sodium pyruvate. The WM3248 cells were maintained in MCDB153:L15 (4:1) growth medium containing 2% FCS, […] insulin and 1.68 mM CaCl2. To create PLX4032-resistant cells, A375, SK-MEL-5, SK-MEL-28 and WM3248 cells were treated with […] in monolayer culture in growth medium for several weeks. The surviving cells were then expanded and cultured in increasing doses of PLX4032 up to […]. The resulting PLX4032-resistant cells, designated PLX4032-resistant (e.g., A375-PLX-R) were routinely maintained in the presence of […] PLX4032.

A375 cells [3] = experiment: Immunofluorescence of YAP1/TAZ subcellular distribution; assay type: cell-based; details: control versus PLX4032-treated A375 cells, FIG. 2D
Experimental: as §1

A375-PLX-R cells [4] = experiment: Immunoblot of ERK1/2 activity in A375-PLX-R cells; assay type: cell-based; details: TEAD intact versus knockdown, FIG. 3F
Experimental: as §1

A375 cells [5] = experiment: Cell proliferation, monolayer A375 cells; assay type: cell-based; details: PLX4032 treatment, FIG. 1D
Experimental: as §2

[6] = test system: tumor-derived A375-PLX-R cells; experiment: Matrigel invasion of tumor-derived A375-PLX-R cells; assay type: cell-based; details: resistant (A375-PLX-R) cells, invasion assayed without drug, FIG. 6G
Experimental: (§3) Tumors were initiated and treated with PLX4032 or verteporfin as above. At 4 weeks, the tumors were removed, mechanically dissociated and dispersed as single cell suspensions with 0.25% trypsin for 10 min and plated as monolayer cultures. After 24 h, the cells were harvested and seeded at 25,000 cells/well atop a 0.1 ml matrigel layer in Millicell (1 cm diameter, […]) chambers in the presence of a serum gradient (38). After 18 h, the membranes were stained with DAPI and the nuclei of migrated cells were visualized by inverted fluorescence microscopy (38).

tumor-derived A375 cells = experiment: Matrigel invasion of tumor-derived A375 cells; assay type: cell-based; details: sensitive (A375) cells, invasion assayed without drug, FIG. 6G
Experimental: as §3

[7] = test system: melanoma cell tumor formation (MCS cells); experiment: Tumor xenograft assay, verteporfin alone (FIGS. 6D-6F); assay type: in vivo, NSG mice; details: verteporfin intraperitoneal, tumor cell line not stated
Experimental: Cells were grown for ten days as spheroids and a single cell suspension, prepared by trypsin digestion, was resuspended in phosphate buffered saline containing 30% Matrigel and 100 μl containing 0.1 million cells were injected subcutaneously at the two front flanks of NOD/scid/IL2 receptor gamma-knockout mice (NSG mice) using a 26.5 gauge needle. PLX4032 was dissolved in phosphate-buffered saline containing 10% DMSO and delivered at 20 mg/kg by oral gavage in […] three times per week (M/W/F). Verteporfin was dissolved in phosphate-buffered saline containing 10% DMSO and 0-100 mg/kg was delivered by intraperitoneal injection of […] three times per week (M/W/F). Five mice were used per group (two tumors per mouse) and treatment was initiated two days after tumor cell injection. Tumor growth was monitored by measuring tumor diameter and calculating tumor volume using the formula, volume=4/3π×(diameter/2)^3. Mice were euthanized by injection of 250 μl of a 2.5% stock of Avertin per mouse followed by cervical dislocation of the neck. Tumor samples were harvested to prepare extract for immunoblot and sections for immunostaining. These experiments were reviewed and approved by the University of Maryland-Baltimore Institutional Animal Care and Use Committee. The plotted values are mean±SEM and significance were determined using the students t-test.

tumor-derived cells = experiment: Matrigel invasion of cells from verteporfin-treated tumors; assay type: cell-based; details: FIG. 6H
Experimental: as §3

pre-formed spheroids = experiment: Treatment of pre-formed spheroids; assay type: cell-based
Experimental: Cancer cells were maintained under attached conditions in growth media containing DMEM (Invitrogen, Frederick, Md.) supplemented with 4.5 mg/ml D-glucose, […] L-glutamine, 100 mg/ml sodium pyruvate, and 5% fetal calf serum. For spheroid culture, monolayer cultures were dissociated with 0.25% trypsin and the cells were collected by centrifugation, and resuspended in spheroid media, consisting of DMEM/F12 (1:1) (DMT-10-090-CV, Mediatech INC, Manassa, Va.) containing 2% B27 serum-free supplement (17504-044, Invitrogen, Frederick, Md.) 20 ng/ml EGF (E4269, Sigma, St. Louis), 0.4% bovine serum albumin (B4287, Sigma) and […] insulin (19278 Sigma, St. Louis, Mo.) and plated at 40,000 cells per 9.6 cm^2 well in six well ultra-low attachment Costar cluster dishes (4371, Corning, Tewksbury, Mass.). Parallel cultures were plated in spheroid media on conventional plastic dishes for growth as monolayer cultures.
Identification of agents that suppress survival of PLX4032-resistant cells, or re-sensitize these cells to PLX4032, is an important goal. […] YAP1 interacts with TEAD transcription factors to drive gene expression (6,28) and a small molecular inhibitor called verteporfin has been reported to disrupt YAP1/TEAD interaction by binding to YAP1 and altering its structure (6,16). The impact of verteporfin treatment on spheroid formation and matrigel invasion in PLX4032 sensitive and resistant MCS cells was examined.

| Compound | apoptosis (cleaved PARP accumulation, procaspase 8 and 9 levels) (A375 cells [1]) | cyclin B and cyclin A level (A375 cells [1]; FIGS. 3A-3B) | p21Cip1 and p27 level (A375 cells [1]; FIGS. 3A-3B) | ERK1/2 signaling / phosphorylation (A375 cells [1]; FIGS. 3A-3B, 3F) | proliferation of A375-PLX-R cells (A375-PLX-R cells [2]) | YAP1 intracellular distribution (A375 cells [3]) | ERK1/2 activity (A375-PLX-R cells [4]) | A375 cell proliferation (A375 cells [5]) | matrigel invasion of tumor-derived cells after in vivo treatment [6] | matrigel invasion of tumor-derived cells after in vivo treatment (tumor-derived A375 cells) | YAP1 and TAZ level in tumors ([7]; FIG. 6F) | tumor size / tumor formation ([7]; FIGS. 6D-6E) | matrigel invasion of tumor-derived cells after in vivo treatment (tumor-derived cells) | reduction of spheroid number/integrity (pre-formed spheroids; 20 μM verteporfin, 3-day treatment, FIG. 4C legend) | pre-formed spheroids after prolonged treatment (pre-formed spheroids; prolonged verteporfin treatment (not shown)) | reduction of spheroid number/integrity (pre-formed spheroids; spheroids formed for 8 d, 3D treatment, FIG. 4C) |
| --- | --- | --- | --- | --- | --- | --- | --- | --- | --- | --- | --- | --- | --- | --- | --- | --- |
| CCCS(=O)(=O)Nc1ccc(F)c(C(=O)c2c[nH]c3ncc(-c4ccc(Cl)cc4)cc23)c1F [PLX4032] | enhances | reduced | increased | suppressed; also recorded: reduced | not suppressed | no major change | only reduced in A375-PLX-R cells following TEAD knockdown and PLX4032 treatment | reduces | does not suppress | does not suppress | – | – | – | – | – | – |
| verteporfin | – | – | – | – | – | – | – | – | – | – | suppressed | reduced | reduced | 30-50% | complete destruction | 30-50% |
